Test results: publication PMC9467586, “Development of novel 9-O-substituted-13-octylberberine derivatives as potential anti-hepatocellular carcinoma agents” (Journal of Enzyme Inhibition and Medicinal Chemistry, 2022)

Experiments:
Huh-7 cells = assay: In vitro antiproliferative MTT assay, Huh-7 cells; format: cell-based, human; conditions: Homo sapiens, 72 h, mean ± SD (n = 3)
Description: (§1) HepG2, Sk-Hep-1, Huh-7, Hep3B and L-02 cells were purchased from Nanjing Key Gen Biotech Co. Ltd. (Nanjing, China). The cytotoxicity of test compounds was determined using an MTT assay. Briefly, the cell lines were incubated at 37 °C in a humidified 5% CO2 incubator for 24 h in 96-microwell plates. After medium removal, 100 μL of culture medium with 0.1% DMSO containing test compounds at different concentrations was added to each well and incubated at 37 °C for another 72 h. The MTT (5 mg/mL in PBS) was added and incubated for another 4 h, the optical density was detected with a microplate reader at 490 nm. The IC50 values were calculated according to the dose-dependent curves. All the experiments were repeated in at least three independent experiments.

[1] = LWP coefficient (log D) measurement, shake flask; format: physicochemical; conditions: 1-octanol/phosphate buffer (PBS); 1-octanol/PBS pH 7.4, shake flask, 37 °C; read-out: Log D
Description: Berberine, 3c and 6k of 1 mg were dissolved in three centrifugal tubes (5 ml) containing phosphate buffer (pH 7.4)-saturated 1-octanol solution (2 mL), followed by the addition of 1-octanol saturated PBS (2 mL). Each tube was vigorously mixed for 1 min and then shaken for 6 h at a speed of 1000 rpm at 37 °C. The mixtures were then centrifuged. 1 mL of 1-octanol phase and 1 mL of buffer were separately collected. Each phase was diluted to a suitable concentration and analysed by HPLC (Shimadzu DGU-20A3R) on a Shimadzu-GL WondaSil C18-WR column (λ = 254 nm) with an eluent of methanol/water (65/35, v/v, 1.0 ml/min). The log D value for each compound was calculated from the ratio of the peak areas using the following equation: Log D = log (Areaoct × x/Areabuf × y). x, y is the dilution factor.

normal hepatocytes L-02 = assay: MTT cytotoxicity assay, normal hepatocytes L-02; format: cell-based; conditions: Hepatocyte; normal hepatocytes L-02, MTT, 72 h, mean ± SD (n = 3)
Description: as §1

Sk-Hep-1 cells = assay: In vitro antiproliferative MTT assay, Sk-Hep-1 cells; format: cell-based, human; conditions: Homo sapiens, SK-HEP1, 72 h, mean ± SD (n = 3)
Description: as §1

c-MYC G4 DNA (FPu18T) = assay: FRET-melting assay, FPu18T (c-MYC G4 DNA model); conditions: 2 μM compounds
[2] = Aqueous solubility measurement by HPLC; format: physicochemical; conditions: PBS (50 mM, aqueous buffer, thermodynamic from solid); PBS (pH 7.4), 25 °C, HPLC; read-out: Solubility
Description: Berberine, 3c and 6k (5 mg) were dissolved in 1 ml PBS (50 mM, pH 7.4) at 25 °C. The suspension was sonicated for 30 min and then centrifuged at 15000 g for 5 min. The supernatant was filtered through a PTFE filter (0.2 μm) slowly. Then 10 μL filtered solution was injected into the HPLC system (Shimadzu DGU-20A3R) on a Shimadzu-GL WondaSil C18-WR column and quantified using the standard curves made by the corresponding known concentrations of berberine, 3c and 6k. The eluent was methanol/water (65/35, v/v) at a flow rate of 1.0 ml/min with the detection wavelength at 254 nm.

Hep3B cells = assay: In vitro antiproliferative MTT assay, Hep3B cells; format: cell-based, human; conditions: Homo sapiens, 72 h, mean ± SD (n = 3)
Description: as §1

[3] = tested on: human hepatoma cells including HepG2, Sk-Hep-1 and Huh-7 cells; assay: Antiproliferative MTT assay, summary over human hepatoma cells; format: cell-based; conditions: read-out: IC50 values against human hepatoma cells (span over cell lines)
Description: as §1

HepG2 cells = assay: In vitro antiproliferative MTT assay, HepG2 cells; format: cell-based, human; conditions: Homo sapiens, 72 h, mean ± SD (n = 3), read-out: IC50 (antiproliferative activity against HepG2 cells)
Description: as §1

duplex DNA (F10T) = assay: FRET-melting assay, F10T (duplex DNA model); format: binding; conditions: 2 μM compounds
[4] = tested on: H22 liver cancer xenograft; assay: In vivo anti-HCC assay, H22 liver cancer xenograft mouse model; parameters: species or system mice; conditions: 30 mg/kg, intravenous, once a day for 21 days, H22 mice
Description: Five-week-old male Institute of Cancer Research (ICR) mice were purchased from Shanghai SLAC Laboratory Animals Co. Ltd. Briefly, a total of 1 × 10^6 H22 cells were subcutaneously inoculated into the right flank of ICR mice according to protocols of tumour transplant research, to initiate tumour growth. After incubation for one day, mice were weighed and randomly divided into 5 groups of 8 animals. The groups were administered berberine (30 mg/kg) and 6k (15 or 30 mg/kg) in a vehicle of 10% DMF/2% Tween 80/88% saline, respectively. Vehicle and cyclophosphamide (20 mg/kg) were employed as negative and positive controls, respectively. Treatments were performed by intravenous injection once per day for a total of 21 consecutive days. Body weights and tumour volumes were measured every 2 days. The mice were sacrificed after the treatments, and the tumours were excised and weighed. The tumour volume and inhibition rate (w/w) were calculated as follows: tumour volume = L × W^2/2, where L is the length and W is the width; tumour inhibitory ratio (%) = (1-average tumour weight of treated group/average tumour weight of control group) × 100%. All procedures were performed following institutional approval in accordance with the NIH Guide for the Care and Use of Laboratory Animals.

COc1ccc2cc3[n+](cc2c1OC)CCc1cc2c(cc1-3)OCO2 [Berberine]
IC50 (Huh-7 cells): > 50 µM
logD [1]: -0.98
IC50 (normal hepatocytes L-02): > 50 µM
IC50 (Sk-Hep-1 cells): > 50 µM
ΔTm(A) = Tm(FPu18T + compound) - Tm(FPu18T) (c-MYC G4 DNA (FPu18T)): 1.2 °C
solubility at 30 min [2]: 1360 µg/mL
IC50 (Hep3B cells): > 50 µM
IC50 [3]: > 50 µM
IC50 (HepG2 cells): > 50 µM
ΔTm(B) = Tm(F10T + compound) - Tm(F10T) (duplex DNA (F10T)): 2.0 °C
tumour inhibitory rate (TIR, w/w) [4]: 47.3%
